# Test system: skin
# Conditions: 50 volunteers, undiluted, patch 48 hours, read after 48 hours and after 72 hours
smiles,measurement,value
"CCCCCCCCCCCCOS(=O)(=O)[O-].[Na+] [SDS, Sodium dodecyl sulphate]",positive reactions,11 subjects
